# Measured values reported in patent US20040215284A1, “Treatment of neuromuscular dysfunction of the lower urinary tract with selective mGlu5 antagonists” (Recordati S.A., priority 2003, published 2004).
# Legend:
# mGlu1 = molecular target: T1, mGlu1 (Rattus norvegicus, UniProt P23385); test: Radioligand binding assay at mGlu1, [3H]quisqualic acid, rat cerebellum membranes; settings: for Ki: [3H]quisqualic acid
# T1 construct: pellets from rat cerebellum were resuspended; from tissue; host or cells: rat cerebellum membranes (male Sprague Dawley)
# Description: (§1) Male Sprague Dawley rats (200-300 g, Charles River, Italy) were killed by cervical dislocation and the forebrain (cortex, striatum and hippocampus) and cerebellum were homogenized (2×20 sec) in 50 vols of cold 50 mM Tris buffer pH 7.4, using a Politron homogenizer (Kinematica). […] The final pellets were frozen and stored at −80° C. until use.
# i) mGlu1: On experimental section pellets from rat cerebellum were resuspended in 150-200 vols of 20 mM N-2-hydroxyethylpiperazine-N′-2-ethanesulfonic acid (HEPES), 2 mM MgCl2, 2 mM CaCl2, pH 7.4.
# (§2) The filters were then washed with cold buffer and the radioactivity retained on the filters was counted by liquid scintillation spectrometry.
# (§3) Data were expressed as the mean of pKi(−log Ki)±SE.
# [1] = molecular target: Group II (mGlu2 + mGlu3) receptors; test: Radioligand binding assay at Group II (mGlu2+mGlu3), [3H]LY341495, rat forebrain membranes; settings: rat forebrain; for Ki: [3H]LY341495
# Description: as §1
# iii) Group II (mGlu2+mGlu3): On experimental section pellets from rat forebrain were resuspended in 250 vols of 20 mM HEPES, 2 mM MgCl2, 2 mM CaCl2, pH 7.4. The membranes were incubated in a final volume of 1 ml for 30 min at 0° C. with 1 nM [^3H]LY341495 in the absence or presence of competing drugs.
# as §2, §3
# [2] = tested on: rhythmic bladder-voiding contractions in anaesthetised rats; test: Rhythmic bladder-voiding contractions induced by bladder filling in anaesthetised rats; assay type: in vivo, rat; settings: for BLADDER CONTRACTIONS quiescence time: mean ± SEM; for activity as inhibitors of isovolumic voiding contractions (in words) / ED10min (extrapolated dose inducing 10 min of bladder quiescence): i.v.; for activity as inhibitors of isovolumic voiding contractions (in words): anaesthetised rats; for ED10min (extrapolated dose inducing 10 min of bladder quiescence): linear regression
# Description: The animals were housed with free access to food and water and maintained on a forced 12-hour alternating light-dark cycle at 22-24° C. for at least one week, except during the experiment. […] The catheter was tied in place with a ligature around the external urethral orifice and was connected to conventional pressure transducers (Statham P23 ID/P23 XL). […] The bladder was then filled via the recording catheter by incremental volumes of warm (37° C.) saline until reflex bladder-voiding contractions occurred (usually 0.8-1.5 ml). For intravenous injection of bioactive compounds, PE 50 polyethylene tubing filled with physiological saline was inserted into the jugular vein.
# From the cystometrogram, the number of contractions recorded 15 minutes before (basal values) and after treatment, as well as the mean amplitude of these contractions (mean height of the peaks in mmHg), were evaluated.
# Morphine was tested, too, as a reference standard for this model.
# mGlu5 = mGlu5 (Rattus norvegicus, UniProt P31424); settings: rat forebrain; for Ki: read-out: mGlu5 Ki, [3H]MPEP
# Description: as §1
# ii) mGlu5: On experimental section pellets from rat forebrain were resuspended in 100 vols of 20 mM HEPES, 2 mM MgCl2, 2 mM CaCl2, pH 7.4.
# as §2, §3
# mGlu5a = mGlu5a (Homo sapiens, UniProt P41594); settings: literature, functional models; cited from earlier work
# mGlu2 = mGlu2 (Homo sapiens, UniProt Q14416); settings: cited from earlier work
# mGlu4a = mGlu4a (Homo sapiens, UniProt Q14833); settings: literature, functional models; cited from earlier work
# mGlu1a = mGlu1a (Homo sapiens, UniProt Q13255); settings: literature, functional models; cited from earlier work
# conscious rats = test: Cystometric parameters in conscious rats (bladder infused with saline); assay type: in vivo, rat
# Description: Male Sprague-Dawley rats [Crl: CD® (SD) IGS BR] of 300-400 g b.w. supplied by Charles River Italia were used. The animals were housed with free access to food and water and maintained on a forced 12-hour-light/12-hour-dark cycle at 22-24° C. of temperature, except during the experiment. To quantify urodynamic parameters in conscious rats, cystometrographic studies were performed according to the procedure previously reported (Guarneri et al., Pharmacol. Res. 24: 75, 1991).
# Briefly, the rats were anaesthetized by intraperitoneal administration of 3 ml/kg of Equithensin solution (pentobarbital 30 mg/kg and chloral hydrate 125 mg/kg) and placed in a supine position. An approximately 10 mm long midline incision was made in the shaved and cleaned abdominal wall. The urinary bladder was gently freed from adhering tissues, emptied and then cannulated via an incision in the bladder body, using a polyethylene cannula (0.58 mm internal diameter, 0.96 mm external diameter) which was permanently sutured with silk thread. For intravenous bolus injection, a similar polyethylene tubing filled with physiological saline containing sodium heparin (40 I.U./ml) was inserted into the jugular vein. The cannulae were exteriorized through a subcutaneous tunnel in the retroscapular area, where they were connected to a plastic adapter in order to avoid the risk of removal by the animal. For drug testing, the rats were utilized one day after implantation.
# On the day of the experiment, the rats were placed in modified Bollman cages, i.e., restraining cages that were large enough to permit the rats to adopt a normal crouched posture, but narrow enough to prevent turning around. After a stabilization period of about 20 minutes, the free tip of the bladder cannula was connected through a T-shaped tube to a pressure transducer (Statham P23XL) and to a peristaltic pump (Gilson minipuls 2) for continuous infusion of a warm (37° C.) saline solution into the urinary bladder, at a constant rate of 0.1 ml/minute. The intraluminal-pressure signal during infusion of saline into the bladder was continuously recorded on a polygraph (Rectigraph-8K San-ei with BM614/2 amplifier from Biomedica Mangoni) and, from the cystometrogram, two urodynamic parameters were evaluated: bladder volume capacity (BVC) and micturition pressure (MP). BVC (in ml) is defined as the volume of saline infused into the bladder necessary to induce detrusor contraction followed by micturition. MP (in mmHg) is defined as the maximal intravesical pressure caused by contraction during micturition. Basal BVC and MP values were evaluated as the mean of the values observed in the cystometrograms recorded in an initial period of 30-60 minutes. At this point in the assay, the infusion was interrupted and the test compounds were administered either intravenously by the jugular catheter or orally by a stomach tube. The bladder infusion restarted and changes in BVC and MP were evaluated from the mean values obtained in the cystometrograms observed during 1, 2, 3, 4, and 5 hours after treatment. The compounds were administered in a volume of 1 ml/kg and 2 ml/kg for intravenous and oral administration routes, respectively. Groups of control animals received the same amount of vehicle corresponding to a solution of 8% dimethylformamide and 8% Tween 80 in water (final concentrations) for intravenous, or a solution of 0.5% methocel in water for oral route.
# Under the given test conditions, measurement of BVC is equivalent to measurement of interval time between micturitions.
# All data were expressed as mean±standard error. The percent changes of BVC and MP relative to the basal values, as well as Δ values (difference in ml or in mmHg) of BVC and MP (BVC or MP at time “x” minus basal value), were also evaluated for each rat/time. In the figures, data were reported as percentage changes relative to basal values. […]
# [3] = tested on: conscious rats with bladder infused with dilute acetic acid; test: Cystometric parameters in conscious rats with bladder infused with dilute acetic acid; assay type: in vivo, rat; settings: 10 mg/kg oral, bladder infused with 0.2% acetic acid
# Description: The method used was that described in Example 4. The basal BVC and MP values were evaluated as the mean of the values observed in the cystometrograms recorded over an initial period of 30-60 minutes. At this point in the test, the infusion was stopped and the test compounds were administered orally via gastric intubation. Infusion into the bladder was resumed, replacing the warm saline solution with dilute acetic acid (0.2%) and the variations in BVC and MP recorded were evaluated as mean values obtained in the cystometrograms 1, 2, 3 and 4 hours after the treatment, relative to the basal values. The compounds were administered in a volume of 2 ml/kg and the groups of control animals received the same amount of vehicle (0.5% Methocel in water) orally.
# The statistical analysis of the data was performed as reported in Example 4.
# mGlu6 = mGlu6 (Homo sapiens, UniProt O15303); settings: literature, functional models; cited from earlier work
# mGlu7 = mGlu7 (Homo sapiens, UniProt Q14831); settings: literature, functional models; cited from earlier work
# mGlu8 = mGlu8 (Homo sapiens, UniProt O00222); settings: literature, functional models; cited from earlier work
# T1 sequence (P23385 19-1199): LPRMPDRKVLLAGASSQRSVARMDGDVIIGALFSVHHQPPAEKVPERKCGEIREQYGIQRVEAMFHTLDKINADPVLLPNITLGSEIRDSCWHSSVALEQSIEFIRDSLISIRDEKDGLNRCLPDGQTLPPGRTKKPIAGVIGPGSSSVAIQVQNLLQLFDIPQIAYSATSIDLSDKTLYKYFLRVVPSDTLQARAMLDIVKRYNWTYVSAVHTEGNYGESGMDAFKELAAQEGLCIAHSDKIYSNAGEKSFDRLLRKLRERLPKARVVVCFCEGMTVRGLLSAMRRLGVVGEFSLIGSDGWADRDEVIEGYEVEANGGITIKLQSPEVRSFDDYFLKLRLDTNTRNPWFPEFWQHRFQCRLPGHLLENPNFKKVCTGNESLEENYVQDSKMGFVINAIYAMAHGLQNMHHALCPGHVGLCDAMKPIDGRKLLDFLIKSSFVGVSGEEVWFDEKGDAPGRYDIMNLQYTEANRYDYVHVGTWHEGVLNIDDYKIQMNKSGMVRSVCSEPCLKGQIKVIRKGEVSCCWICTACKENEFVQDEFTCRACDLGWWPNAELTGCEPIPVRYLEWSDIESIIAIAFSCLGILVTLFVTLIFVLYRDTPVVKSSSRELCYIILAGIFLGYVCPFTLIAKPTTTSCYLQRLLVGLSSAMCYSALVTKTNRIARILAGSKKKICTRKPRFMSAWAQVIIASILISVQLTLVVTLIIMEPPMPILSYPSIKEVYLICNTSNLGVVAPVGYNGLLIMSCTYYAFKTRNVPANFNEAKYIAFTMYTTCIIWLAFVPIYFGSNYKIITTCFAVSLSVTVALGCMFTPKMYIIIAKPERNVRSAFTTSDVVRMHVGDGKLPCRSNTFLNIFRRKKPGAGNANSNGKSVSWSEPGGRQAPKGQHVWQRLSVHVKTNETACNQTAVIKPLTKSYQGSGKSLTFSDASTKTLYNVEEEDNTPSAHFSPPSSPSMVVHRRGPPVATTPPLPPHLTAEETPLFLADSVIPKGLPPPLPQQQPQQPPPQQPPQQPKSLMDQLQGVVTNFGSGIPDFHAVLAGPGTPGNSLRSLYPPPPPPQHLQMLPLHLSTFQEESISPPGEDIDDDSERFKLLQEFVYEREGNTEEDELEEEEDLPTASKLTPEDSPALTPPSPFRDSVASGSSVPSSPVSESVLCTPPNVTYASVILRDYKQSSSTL
# Sequence of mGlu5 (P31424 21-1203): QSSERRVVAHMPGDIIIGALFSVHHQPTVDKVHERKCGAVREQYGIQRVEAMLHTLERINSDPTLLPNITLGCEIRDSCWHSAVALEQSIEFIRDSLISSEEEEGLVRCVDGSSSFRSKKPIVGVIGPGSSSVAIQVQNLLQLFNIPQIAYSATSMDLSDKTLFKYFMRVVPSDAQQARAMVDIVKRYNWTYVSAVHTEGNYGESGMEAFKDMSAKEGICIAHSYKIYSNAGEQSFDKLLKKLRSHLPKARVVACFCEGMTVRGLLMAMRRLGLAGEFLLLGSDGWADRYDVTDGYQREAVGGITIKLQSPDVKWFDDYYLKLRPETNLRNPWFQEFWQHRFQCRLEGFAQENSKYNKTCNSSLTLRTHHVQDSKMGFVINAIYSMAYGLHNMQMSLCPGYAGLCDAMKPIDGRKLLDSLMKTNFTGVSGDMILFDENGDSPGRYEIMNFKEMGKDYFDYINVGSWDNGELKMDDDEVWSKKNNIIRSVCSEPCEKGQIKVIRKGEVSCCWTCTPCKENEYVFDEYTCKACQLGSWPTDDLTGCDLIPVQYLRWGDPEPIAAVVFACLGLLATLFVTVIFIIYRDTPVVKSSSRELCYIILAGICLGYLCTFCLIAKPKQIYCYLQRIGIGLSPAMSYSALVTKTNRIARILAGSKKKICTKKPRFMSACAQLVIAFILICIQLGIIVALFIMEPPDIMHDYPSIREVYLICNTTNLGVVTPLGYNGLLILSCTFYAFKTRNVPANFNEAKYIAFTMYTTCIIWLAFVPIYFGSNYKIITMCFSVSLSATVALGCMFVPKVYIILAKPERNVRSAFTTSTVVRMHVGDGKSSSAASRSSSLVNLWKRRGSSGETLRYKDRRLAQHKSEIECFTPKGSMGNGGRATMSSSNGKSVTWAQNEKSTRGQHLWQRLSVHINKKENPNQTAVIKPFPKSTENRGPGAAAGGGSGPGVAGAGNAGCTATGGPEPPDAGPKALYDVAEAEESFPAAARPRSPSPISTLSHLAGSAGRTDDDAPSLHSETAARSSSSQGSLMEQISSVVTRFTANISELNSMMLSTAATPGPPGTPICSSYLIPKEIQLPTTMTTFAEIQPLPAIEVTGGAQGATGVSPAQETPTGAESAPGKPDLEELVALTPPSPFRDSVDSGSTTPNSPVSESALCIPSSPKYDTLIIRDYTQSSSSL
# Sequence of mGlu1a (Q13255 19-1194): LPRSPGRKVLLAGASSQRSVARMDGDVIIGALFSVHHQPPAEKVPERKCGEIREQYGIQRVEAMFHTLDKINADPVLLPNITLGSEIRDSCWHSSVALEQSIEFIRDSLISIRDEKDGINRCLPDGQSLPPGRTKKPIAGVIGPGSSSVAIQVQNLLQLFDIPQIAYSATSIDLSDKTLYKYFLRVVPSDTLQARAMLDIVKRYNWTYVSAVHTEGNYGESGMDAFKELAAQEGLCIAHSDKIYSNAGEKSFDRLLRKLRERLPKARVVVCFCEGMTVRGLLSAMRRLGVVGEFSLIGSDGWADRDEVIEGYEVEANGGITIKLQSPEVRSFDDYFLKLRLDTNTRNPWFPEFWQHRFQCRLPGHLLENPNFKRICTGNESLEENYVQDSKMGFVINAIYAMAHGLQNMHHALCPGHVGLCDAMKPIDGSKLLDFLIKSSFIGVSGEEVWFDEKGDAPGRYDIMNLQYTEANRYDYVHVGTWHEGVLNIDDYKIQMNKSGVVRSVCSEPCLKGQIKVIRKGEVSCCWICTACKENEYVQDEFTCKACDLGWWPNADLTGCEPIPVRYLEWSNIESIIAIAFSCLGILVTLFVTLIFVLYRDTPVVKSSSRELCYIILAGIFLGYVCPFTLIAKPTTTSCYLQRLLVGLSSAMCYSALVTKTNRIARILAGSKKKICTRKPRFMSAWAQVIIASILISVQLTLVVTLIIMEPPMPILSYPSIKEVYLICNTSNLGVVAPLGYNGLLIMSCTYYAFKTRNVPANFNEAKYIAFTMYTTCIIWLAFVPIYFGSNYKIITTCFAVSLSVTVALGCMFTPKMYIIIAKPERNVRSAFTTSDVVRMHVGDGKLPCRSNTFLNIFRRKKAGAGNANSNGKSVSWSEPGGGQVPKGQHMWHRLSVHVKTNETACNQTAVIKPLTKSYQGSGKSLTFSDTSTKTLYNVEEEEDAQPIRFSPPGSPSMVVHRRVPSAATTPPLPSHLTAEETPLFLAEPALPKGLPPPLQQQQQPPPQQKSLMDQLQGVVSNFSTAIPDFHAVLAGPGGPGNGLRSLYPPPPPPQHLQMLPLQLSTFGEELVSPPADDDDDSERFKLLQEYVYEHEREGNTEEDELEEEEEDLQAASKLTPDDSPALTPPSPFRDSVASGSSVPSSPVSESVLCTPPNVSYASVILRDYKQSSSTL
# Sequence of mGlu5a (P41594 21-1180 isoform P41594-2 limits assumed): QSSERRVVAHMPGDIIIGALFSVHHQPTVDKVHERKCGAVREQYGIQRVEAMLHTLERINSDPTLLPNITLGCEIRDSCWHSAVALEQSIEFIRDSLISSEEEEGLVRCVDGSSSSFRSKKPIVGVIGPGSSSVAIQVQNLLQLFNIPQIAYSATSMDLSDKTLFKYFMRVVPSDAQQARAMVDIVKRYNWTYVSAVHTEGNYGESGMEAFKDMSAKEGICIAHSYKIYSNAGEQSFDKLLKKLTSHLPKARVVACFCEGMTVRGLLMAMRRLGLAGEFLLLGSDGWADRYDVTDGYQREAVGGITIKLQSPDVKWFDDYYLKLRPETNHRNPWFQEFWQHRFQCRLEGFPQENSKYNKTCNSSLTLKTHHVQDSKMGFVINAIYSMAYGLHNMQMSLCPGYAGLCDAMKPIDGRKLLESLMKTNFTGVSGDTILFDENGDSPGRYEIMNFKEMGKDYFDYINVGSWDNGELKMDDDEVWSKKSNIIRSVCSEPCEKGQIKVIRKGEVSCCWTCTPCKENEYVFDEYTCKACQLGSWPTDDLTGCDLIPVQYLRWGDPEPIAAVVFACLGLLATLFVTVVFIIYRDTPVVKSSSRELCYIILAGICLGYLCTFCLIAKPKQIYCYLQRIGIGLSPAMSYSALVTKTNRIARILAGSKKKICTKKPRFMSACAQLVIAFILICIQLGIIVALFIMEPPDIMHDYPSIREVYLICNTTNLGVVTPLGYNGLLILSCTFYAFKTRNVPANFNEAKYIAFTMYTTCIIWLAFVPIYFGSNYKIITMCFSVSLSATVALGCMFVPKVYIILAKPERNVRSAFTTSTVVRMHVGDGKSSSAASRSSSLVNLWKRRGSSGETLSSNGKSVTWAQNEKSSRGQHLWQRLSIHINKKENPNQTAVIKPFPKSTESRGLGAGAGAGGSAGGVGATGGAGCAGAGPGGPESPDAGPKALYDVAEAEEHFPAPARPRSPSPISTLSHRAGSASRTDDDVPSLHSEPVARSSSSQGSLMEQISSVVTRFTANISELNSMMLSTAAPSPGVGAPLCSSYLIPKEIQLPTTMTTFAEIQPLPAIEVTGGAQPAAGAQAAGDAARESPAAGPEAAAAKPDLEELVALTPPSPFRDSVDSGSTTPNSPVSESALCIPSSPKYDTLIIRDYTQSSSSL
Compound,Ki (mGlu1),Ki [1],BLADDER CONTRACTIONS quiescence time ([2]; 1000 μg/kg i.v.),BLADDER CONTRACTIONS quiescence time ([2]; 3000 μg/kg i.v.),BLADDER CONTRACTIONS quiescence time ([2]; 10000 μg/kg i.v.),activity as inhibitors of isovolumic voiding contractions (in words) [2],ED10min (extrapolated dose inducing 10 min of bladder quiescence) [2],Ki (mGlu5),IC50 (mGlu5a),IC50 (mGlu4a),BLADDER CONTRACTIONS quiescence time ([2]; 100 μg/kg i.v.),BLADDER CONTRACTIONS quiescence time ([2]; 300 μg/kg i.v.),IC50 (mGlu1a),also measured
NC1(C(=O)O)CCc2cc(C(=O)O)ccc21 (centres unmarked) [AIDA],> 10 µM,> 10 µM,1.50 ± 0.54 min,2.33 ± 1.44 min,2.35 ± 0.50 min,inactive,>10 mg/kg,> 10 µM,> 1000 µM,> 1000 µM,–,–,–,mGlu2 activity (in words) (mGlu2; literature (Moroni et al. 1997)): Weak
N[C@](CC1c2ccccc2Oc2ccccc21)(C(=O)O)[C@H]1C[C@@H]1C(=O)O [LY 341495],–,0.004 µM,4.65 ± 2.11 min,–,–,inactive,>1 mg/kg,–,–,–,2.45 ± 1.39 min,4.48 ± 1.31 min,–,displacement of specific binding of [3H]LY341495 to Group II receptors (in words) [1]: displaced with high affinity
Cc1cc(C(=O)O)ccc1[C@H](N)C(=O)O [LY 367385],6 µM,> 1 µM,–,1.00 ± 0.29 min,1.95 ± 0.30 min,inactive,>10 mg/kg,> 10 µM,> 100 µM,–,–,–,8.8 µM,displacement of [3H]quisqualic acid from its binding sites (in words) (mGlu1): significantly displaced
"Cc1cccc(C#Cc2ccccc2)n1 [MPEP, 2-methyl-6-(phenylethynyl)pyridine]",> 10 µM,> 1 µM,22.46 ± 5.35 min,–,–,active,0.15 mg/kg,–,–,> 100 µM,7.09 ± 1.04 min,12.64 ± 1.72 min,> 100 µM,"BLADDER CONTRACTIONS quiescence time ([2]; 30 μg/kg i.v.): 3.90 ± 1.37 min; bladder volume capacity (BVC) (conscious rats; 10 mg/kg i.v., vs basal values and vs control group, FIG. 1): significant increases in BVC; bladder volume capacity (BVC) (conscious rats; 3 and 10 mg/kg i.v., FIG. 1): effective in increasing the bladder volume capacity; micturition pressure (MP) (conscious rats; i.v., MPEP 3 and 10 mg/kg, SIB 1893 50 mg/kg, FIG. 2): only mild effects on the micturition pressure; bladder volume capacity (BVC) (conscious rats; oral, 3-10 and 30 mg/kg, effect at 10 mg/kg or higher, FIG. 3): significant and dose-dependent increases in the BVC; micturition pressure (MP) (conscious rats; oral, 10 and 30 mg/kg, vs control group, FIG. 4): significantly reduced the MP; bladder volume capacity (BVC) ([3]; FIG. 5): effective in antagonizing the reduction of the bladder volume capacity; micturition pressure (MP) ([3]; FIG. 6): no effect on the micturition pressure; inhibition of the specific binding of [3H]MPEP to mGlu5 receptor (in words) (mGlu5): most potent inhibitors; IC50 (mGlu2; literature, functional models): > 100 µM; IC50 (mGlu6): > 100 µM; IC50 (mGlu7): > 100 µM; IC50 (mGlu8): > 100 µM"
